The values below come from patent US8577617B2, “Metabolic phenotyping” (priority 2002, dated 2013).

Values joined by “and” are separate entries in the source; they are usually repeats but may differ in a detail not shown here. Equal entries are not always repeated.

This data set deals with male Sprague-Dawley rats. The data set can be described thus: Histopathology of liver after dosing galactosamine HCl. It counts as in vivo, rat. The note with it: for histopathological changes: 200 mg/kg i.p. The text has this:
Thirty young adult age-matched male Sprague-Dawley rats were obtained from Charles River, France. After observation to ensure that they each appeared healthy they were placed in individual metabolism cages with free access to water and a standard commercial laboratory diet (diet AO4C from Usine d'Alimentation Rationnelle, Villemoisson-sur-Orge, France). The laboratory temperature was maintained at 20.+−−.2 degrees C. and the relative humidity at 60.±.20%. The laboratory air was filtered and changed 14 times per hour. A fixed ‘12 hours light-12 hours dark’ cycle was imposed. The study commenced after a short period of cage ‘acclimatisation’. At the time of dosing (at the start of day 1) the growing rats were each approximately 260 g in mass. Galactosamine (abbreviated GaIN) HCl (from Sigma, France) was dissolved in physiological saline and dosed by intraperitoneal injection at either 200 mg/kg or at 800 mg/kg; ten animals (nos. 101-110) received the low dose and ten animals (nos. 201-210) received the high dose. Ten control animals (nos. 1-10) received an oral dose of corn oil. Five of each group of ten rats were euthanased by means of CO2 on day 2 with the remainder being euthanased by the same technique on day 8. The early-euthanased rats were numbers 6-10, 106-110 and 206-210. The late-euthanased rats were numbers 1-5, 101-105 and 201-205. Blood was sampled from the orbital sinus, under isoflurane anaesthesia. Blood was sampled from all animals on day −3 and just prior to euthanasia on either day 2 or day 8. Following euthanasia each rat was sampled for histopathological examination with the sampling including taking ten liver samples from each rat (two from each liver lobe). The blood samples were collected into vials containing lithium heparin as anticoagulant and immediately centrifuged at approx. minus four degrees C. to separate plasma. A portion of each plasma sample was analysed at thirty degrees C. on an AU600 multiparametric clinical analyser (Olympus) for a range of clinical chemistry parameters including alanine aminotransferase (ALT) and aspartate aminotransferase (AST) amongst many others.

For the molecule `Cl.N[C@H]1C(O)O[C@H](CO)[C@H](O)[C@@H]1O` (some centres unmarked) [galactosamine HCl, galactosamine hydrochloride], the histopathological changes entry is “No differences” (day 2) and “No differences” (day 8). In addition, the “animals with multifocal randomly scattered foci of hepatocellular necrosis” value (800 mg/kg i.p., day 2) is on record as “hepatocellular necrosis were present in 4/5”. Where the note is “800 mg/kg i.p., day 2, individual animals 206-210, hydrochloride”, the “severity of changes (hepatocellular necrosis)” value is 207 - mild and 206, 210 - marked and 209 - severe and 208 - none. For the same molecule, the “animals with minimal bile duct hyperplasia” value (800 mg/kg i.p., day 8) was “Minimal bile duct hyperplasia was found in 2/5”.
